Laboratory results taken from PubChem BioAssay AID248 (DTP/NCI, 2004).
“And” between values parts separate entries of the source, which are not always exact repeats. Identical values can stand only once. Toxic doses and inconclusive results are not listed. Rule as the data show it: active = T/C of 150% or more; inactive = T/C below 125%.

Tested on: L1210 leukemia ip in BDF1 mice, survival T/C
Assay: NCI In Vivo Anticancer Drug Screen. Data for tumor model L1210 Leukemia (intraperitoneal) in B6D2F1 (BDF1) mice
Settings: endpoint: mean survival time, higher = longer survival
Procedure, shortened: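 Transplanted-tumor mice were given test agent; controls received vehicle only. Survival readings from the two groups were divided (treated over control).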

[1] = dose: 100.0 mg/kg/injection, schedule: Q01DX009 (ip), vehicle: Klucel (hydroxypropylcellulose) (HPC)
[2] = dose: 200.0 mg/kg/injection, schedule: Q01DX009 (ip), vehicle: Klucel (hydroxypropylcellulose) (HPC)
[3] = dose: 100.0 mg/kg/injection, schedule: Q04DX003 (ip), vehicle: Klucel (hydroxypropylcellulose) (HPC)
[4] = dose: 200.0 mg/kg/injection, schedule: Q04DX003 (ip), vehicle: Klucel (hydroxypropylcellulose) (HPC)
[5] = dose: 400.0 mg/kg/injection, schedule: Q01DX009 (ip), vehicle: Klucel (hydroxypropylcellulose) (HPC)
[6] = dose: 400.0 mg/kg/injection, schedule: Q04DX003 (ip), vehicle: Klucel (hydroxypropylcellulose) (HPC)
[7] = dose: 100.0 mg/kg/injection, schedule: Q01DX001 (ip), vehicle: saline with Tween-80
[8] = dose: 100.0 mg/kg/injection, schedule: Q01DX009 (ip), vehicle: saline with Tween-80
[9] = dose: 200.0 mg/kg/injection, schedule: Q01DX001 (ip), vehicle: saline with Tween-80
[10] = dose: 200.0 mg/kg/injection, schedule: Q01DX009 (ip), vehicle: saline with Tween-80
[11] = dose: 400.0 mg/kg/injection, schedule: Q01DX001 (ip), vehicle: saline with Tween-80
[12] = dose: 400.0 mg/kg/injection, schedule: Q01DX009 (ip), vehicle: saline with Tween-80
[13] = dose: 100.0 mg/kg/injection, schedule: Q01DX001 (ip), vehicle: saline
[14] = dose: 200.0 mg/kg/injection, schedule: Q01DX001 (ip), vehicle: saline
[15] = dose: 100.0 mg/kg/injection, schedule: Q01DX009 (ip), vehicle: saline
[16] = dose: 100.0 mg/kg/injection, schedule: Q04DX003 (ip), vehicle: saline
[17] = dose: 100.0 mg/kg/injection, schedule: Q01DX009 (ip), vehicle: water
[18] = dose: 400.0 mg/kg/injection, schedule: Q01DX009 (ip), vehicle: water
[19] = dose: 100.0 mg/kg/injection, schedule: Q04DX003 (ip), vehicle: saline with Tween-80
[20] = dose: 200.0 mg/kg/injection, schedule: Q04DX003 (ip), vehicle: saline with Tween-80
[21] = dose: 400.0 mg/kg/injection, schedule: Q04DX003 (ip), vehicle: saline with Tween-80

Measured: T/C

S=P(NCc1ccccc1)(NCc1ccccc1)NCc1ccccc1
inactive: dose: 100.0 mg/kg/injection, schedule: Q04DX002 (ip), vehicle: gum acacia 97 % of control | dose: 200.0 mg/kg/injection, schedule: Q04DX002 (ip), vehicle: gum acacia 97 % of control | dose: 400.0 mg/kg/injection, schedule: Q04DX002 (ip), vehicle: gum acacia 94 % of control

O=[N+]([O-])c1cccc(NCn2c(=S)[nH]c3ccccc32)c1
inactive: [1] 102 % of control | [2] 106 % of control

O=C1CC(c2ccc(O)cc2)CC(=O)C1C(C1CC=CCC1)N(CCCl)CCCl (stereo not drawn)
inactive: [1] 105 % of control and 104 % of control | [3] 103 % of control | [2] 105 % of control and 100 % of control | [4] 106 % of control and 104 % of control | [5] 110 % of control and 100 % of control | [6] 110 % of control and 101 % of control

CNC1(c2ccccc2)CC1
inactive: dose: 75.0 mg/kg/injection, schedule: Q04DX002 (ip), vehicle: saline 100 % of control | dose: 150.0 mg/kg/injection, schedule: Q04DX002 (ip), vehicle: saline 87 % of control

COc1ccc(Cl)cc1NC(=O)Oc1c(C)cccc1C
inactive: [7] 106 % of control | [8] 96 % of control | dose: 100.0 mg/kg/injection, schedule: Q04DX002 (ip), vehicle: saline with Tween-80 95 % of control and 89 % of control | [9] 90 % of control | [10] 98 % of control | dose: 200.0 mg/kg/injection, schedule: Q04DX002 (ip), vehicle: saline with Tween-80 95 % of control and 97 % of control | [11] 96 % of control | [12] 102 % of control | dose: 400.0 mg/kg/injection, schedule: Q04DX002 (ip), vehicle: saline with Tween-80 95 % of control and 98 % of control

CCCCCC#CC(C)OC(=O)Nc1cccc2ccccc12 (stereo not drawn)
inactive: [7] 96 % of control | [9] 98 % of control | [11] 86 % of control

CCOC(=O)CCN(C(=O)OCC)C(COCc1ccccc1)C(=O)OCC (stereo not drawn)
inactive: [13] 104 % of control | [14] 104 % of control | dose: 400.0 mg/kg/injection, schedule: Q01DX001 (ip), vehicle: saline 98 % of control

Cc1ccc(S(=O)(=O)OCC2CO2)cc1 (stereo not drawn)
inactive: dose: 100.0 mg/kg/injection, schedule: Q01DX009 (ip), vehicle: acetone 92 % of control | dose: 100.0 mg/kg/injection, schedule: Q04DX003 (ip), vehicle: acetone 92 % of control | dose: 200.0 mg/kg/injection, schedule: Q04DX003 (ip), vehicle: acetone 95 % of control | dose: 400.0 mg/kg/injection, schedule: Q01DX009 (ip), vehicle: acetone 87 % of control | dose: 400.0 mg/kg/injection, schedule: Q04DX003 (ip), vehicle: acetone 92 % of control

CC(CO)CCCC(C)C1CCC2C3CC=C4CC(O)CCC4(C)C3CCC12C (stereo not drawn)
inactive: [7] 94 % of control | [9] 90 % of control | [11] 100 % of control

Oc1ccccc1-c1nnco1
inactive: dose: 50.0 mg/kg/injection, schedule: Q01DX001 (ip), vehicle: carboxymethylcellulose (CMC) 94 % of control | dose: 100.0 mg/kg/injection, schedule: Q01DX001 (ip), vehicle: carboxymethylcellulose (CMC) 92 % of control | dose: 200.0 mg/kg/injection, schedule: Q01DX001 (ip), vehicle: carboxymethylcellulose (CMC) 94 % of control | dose: 400.0 mg/kg/injection, schedule: Q01DX001 (ip), vehicle: carboxymethylcellulose (CMC) 94 % of control

CC(O)CNC(=O)C(C)(C)O (stereo not drawn)
inactive: [15] 96 % of control | dose: 200.0 mg/kg/injection, schedule: Q01DX009 (ip), vehicle: saline 96 % of control | dose: 400.0 mg/kg/injection, schedule: Q01DX009 (ip), vehicle: saline 94 % of control

COc1ccc(CC2=NCCc3cc(OC)c(OC)cc32)cc1OC
inactive: dose: 75.0 mg/kg/injection, schedule: Q01DX001 (ip), vehicle: saline 97 % of control | [15] 96 % of control and 90 % of control | [16] 110 % of control and 89 % of control | dose: 150.0 mg/kg/injection, schedule: Q01DX001 (ip), vehicle: saline 100 % of control

O=C1OC(c2cccc(Cl)c2)=N/C1=C\c1cccc([N+](=O)[O-])c1
inactive: dose: 100.0 mg/kg/injection, schedule: Q04DX002 (ip), vehicle: Klucel (hydroxypropylcellulose) (HPC) 103 % of control | dose: 200.0 mg/kg/injection, schedule: Q04DX002 (ip), vehicle: Klucel (hydroxypropylcellulose) (HPC) 100 % of control | dose: 400.0 mg/kg/injection, schedule: Q04DX002 (ip), vehicle: Klucel (hydroxypropylcellulose) (HPC) 103 % of control

O=C(O)C(=O)C(Cl)Br (stereo not drawn)
inactive: dose: 12.5 mg/kg/injection, schedule: Q01DX001 (ip), vehicle: saline 111 % of control | dose: 25.0 mg/kg/injection, schedule: Q01DX001 (ip), vehicle: saline 118 % of control | dose: 50.0 mg/kg/injection, schedule: Q01DX001 (ip), vehicle: saline 111 % of control

COC(=O)c1ccc2cc(C(=O)OC)ccc2c1
inactive: dose: 50.0 mg/kg/injection, schedule: Q04DX003 (ip), vehicle: Klucel (hydroxypropylcellulose) (HPC) 105 % of control | [3] 105 % of control | [4] 101 % of control

CCCCNc1cc(Nc2ccc(Br)cc2)nc(N)n1
inactive: [13] 102 % of control | [14] 98 % of control

COc1cc2c(c3oc(=O)ccc13)C(=O)CC(C)(C)O2
inactive: [1] 95 % of control | [16] 96 % of control | [2] 91 % of control | dose: 200.0 mg/kg/injection, schedule: Q04DX003 (ip), vehicle: saline 102 % of control | [5] 95 % of control | dose: 400.0 mg/kg/injection, schedule: Q04DX003 (ip), vehicle: saline 98 % of control

Cc1csc2[nH]c(=O)[nH]c(=O)c12
inactive: [17] 104 % of control | dose: 100.0 mg/kg/injection, schedule: Q04DX003 (ip), vehicle: water 112 % of control | dose: 200.0 mg/kg/injection, schedule: Q04DX003 (ip), vehicle: water 115 % of control | [18] 86 % of control | dose: 400.0 mg/kg/injection, schedule: Q04DX003 (ip), vehicle: water 118 % of control

O=C(/C=C/c1ccccc1O)c1ccccc1
inactive: [1] 98 % of control | [8] 110 % of control | [3] 113 % of control | [19] 94 % of control | [2] 100 % of control | [10] 101 % of control | [4] 113 % of control | [20] 102 % of control | [5] 90 % of control | [12] 102 % of control | [6] 103 % of control | [21] 96 % of control

CCOC(=O)C1=C(Nc2ccccc2)CSC1
inactive: dose: 25.0 mg/kg/injection, schedule: Q01DX009 (ip), vehicle: water 100 % of control | dose: 50.0 mg/kg/injection, schedule: Q01DX009 (ip), vehicle: water 101 % of control | [17] 94 % of control | dose: 200.0 mg/kg/injection, schedule: Q01DX009 (ip), vehicle: water 102 % of control | [18] 89 % of control

COc1c(N(C)C)cc2c(c1C)OC(C)(C)C=C2
inactive: [19] 96 % of control | [20] 94 % of control | [21] 96 % of control

Cn1c(=O)cn[nH]c1=O
inactive: dose: 50.0 mg/kg/injection, schedule: Q01DX009 (ip), vehicle: saline with Tween-80 100 % of control | [8] 108 % of control | [10] 103 % of control

O=C(N/N=C/c1ccccc1)c1ccc(Cl)cc1
inactive: [3] 97 % of control | [4] 100 % of control | [6] 90 % of control

COc1c2c(c(OC)c3ccccc13)C(=O)c1ccccc1C2=O
inactive: dose: 50.0 mg/kg/injection, schedule: Q01DX005 (ip), vehicle: saline 94 % of control | dose: 100.0 mg/kg/injection, schedule: Q01DX005 (ip), vehicle: saline 91 % of control | dose: 200.0 mg/kg/injection, schedule: Q01DX005 (ip), vehicle: saline 91 % of control
